In patent US9695155B2, “Herbicidal substituted pyrimidinyloxy benzene compounds” (E. I. DU PONT DE NEMOURS AND COMPANY, priority 2013, dated 2017):

Key:
[1] = system: barnyardgrass; assay: Test A preemergence; format: in vivo, Echinochloa crus-galli; conditions: 0 to 100 scale where 0 is no effect and 100 is complete control
Method in brief: (§1)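 Greenhouse pot test, loam/sand soil. Formulation: non-phytotoxic solvent mix plus surfactant. Pre: directed spray onto soil after sowing. Post: plants at 1–2 leaf, 2–10 cm. Rated visually vs untreated controls at ~10 d, 0 (no effect) to 100 (complete control).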

[2] = system: corn; assay: Test A postemergence; format: in vivo, Zea mays; conditions: 0 to 100 scale where 0 is no effect and 100 is complete control
Method in brief: as §1

[3] = system: barnyardgrass; assay: Test B flooded paddy test; format: in vivo, Echinochloa crus-galli; conditions: Flood, 250 g ai/ha, 0 to 100 scale where 0 is no effect and 100 is complete control
Method in brief: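 Seedlings are raised to two leaves, flooded to a depth of 3 cm and dosed by adding the compound to the floodwater. Water level is kept constant, and plants are scored visually versus controls 13–15 days later (0 = no effect, 100 = complete control).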

[4] = system: Italian ryegrass; assay: Test C preemergence; format: in vivo, Lolium multiflorum
Method in brief: (§2)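 Seeds are planted in blended loam soil and sand and treated preemergence, while seedlings in a peat moss/vermiculite medium receive postemergence sprays at 2 to 18 cm height. All plants stay in the greenhouse for 13 to 15 days before visual comparison with controls on a 0–100 scale.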

[5] = system: galium; assay: Test C preemergence; format: in vivo, Galium aparine
Method in brief: as §2

[6] = system: large (Lg) crabgrass; assay: Test C preemergence; format: in vivo, Digitaria sanguinalis
Method in brief: as §2

[7] = system: soybean; assay: Test C preemergence; format: in vivo, Glycine max
Method in brief: as §2

[8] = system: barnyardgrass; assay: Test C preemergence; format: in vivo, Echinochloa crus-galli
Method in brief: as §2

[9] = system: oilseed rape; assay: Test C preemergence; format: in vivo, Brassica napus
Method in brief: as §2

[10] = system: wild oat; assay: Test C postemergence; format: in vivo, Avena fatua
Method in brief: as §2

[11] = system: chickweed; assay: Test C postemergence; format: in vivo, Stellaria media
Method in brief: as §2

[12] = 16 g ai/ha, preemergence, scale 0 to 100 (0 no effect, 100 complete control)
[13] = 62 g ai/ha, preemergence, scale 0 (no effect) to 100 (complete control)
[14] = 125 g ai/ha, preemergence, scale 0 (no effect) to 100 (complete control)
[15] = Preemergence, 31 g ai/ha, scale 0 to 100, 0 no effect, 100 complete control
[16] = 16 g ai/ha, postemergence, 0 is no effect, 100 is complete control
[17] = 125 g ai/ha, postemergence, visual rating, scale 0 to 100 (0 no effect, 100 complete control)
[18] = Postemergence, 62 g ai/ha, scale 0 to 100 (0 no effect, 100 complete control)
[19] = 31 g ai/ha, postemergence, visual rating, scale 0 to 100 (0 no effect, 100 complete control), 13 to 15 days

Cc1cnc(Oc2cccc(C#N)c2-n2cc(I)cn2)nc1 [Compound 136]
Plant response rating, Barnyardgrass ([1]; 125 g ai/ha): 60 | Barnyardgrass plant response rating ([1]; 500 g ai/ha): 100 | Corn plant response rating ([2]; 125 g ai/ha): 10 | Plant response rating, Corn ([2]; 500 g ai/ha): 60 | Plant response rating, Barnyardgrass [3]: 20 | Ryegrass, Italian plant response rating [4, 12]: 0 | Ryegrass, Italian plant response rating [4, 13]: 0 | Ryegrass, Italian plant response rating [4, 14]: 15 | Galium plant response rating [5, 12]: 0 | Galium plant response rating [5, 13]: 30 | Galium plant response rating [5, 14]: 85 | Plant response rating, Galium [5, 15]: 0 | Crabgrass, Large plant response rating [6, 12]: 35 | Crabgrass, Large plant response rating [6, 13]: 100 | Crabgrass, Large plant response rating [6, 14]: 100 | Plant response rating, Crabgrass, Large [6, 15]: 100 | Soybean plant response rating [7, 12]: 20 | Soybean plant response rating [7, 13]: 50 | Soybean plant response rating [7, 14]: 85 | Barnyardgrass plant response rating [8, 12]: 0 | Barnyardgrass plant response rating [8, 13]: 60 | Barnyardgrass plant response rating [8, 14]: 100 | Plant response rating, Barnyardgrass [8, 15]: 10 | Oilseed Rape plant response rating [9, 12]: 0 | Oilseed Rape plant response rating [9, 13]: 50 | Oilseed Rape plant response rating [9, 14]: 100 | Plant response rating (0 to 100), Oat, Wild [10, 16]: 0 | Plant response rating, Oat, Wild [10, 17]: 5 | Plant response rating, Oat, Wild [10, 18]: 5 | Plant response rating (0 to 100), Chickweed [11, 16]: 5 | Plant response rating, Chickweed [11, 17]: 60 | Plant response rating, Chickweed [11, 18]: 5

FC(F)(F)Sc1cnn(-c2ccccc2Oc2ncc(Cl)cn2)c1 [Compound 132, 5-chloro-2-[2-[4-(trifluoromethylthio)-1H-pyrazol-1-yl]phenoxy]pyrimidine]
pest or weed control at 125 g/ha ([1]; Echinochloa crus-galli, pre-emergence, 240 h, 125 g ai/ha, read-out: Plant response rating, Barnyardgrass): 50% | pest or weed control at 500 g/ha ([1]; Echinochloa crus-galli, pre-emergence, 240 h, 500 g ai/ha, read-out: Barnyardgrass plant response rating): 100% | plant injury at 125 g/ha ([2]; Zea mays, post-emergence, 240 h, 125 g ai/ha, read-out: Corn plant response rating): 20% | Corn plant response rating (crop injury, 0 = no effect, 100 = complete kill) at 500 g/ha ([2]; Zea mays, post-emergence, 240 h, 500 g ai/ha): 50% | pest or weed control at 250 g/ha ([3]; Echinochloa crus-galli, read-out: Plant response rating, Barnyardgrass): 0% | pest or weed control at 16 g/ha ([4]; Lolium multiflorum, pre-emergence, 16 g ai/ha, preemergence, scale 0 to 100 (0 no effect, 100 complete control), read-out: Ryegrass, Italian plant response rating): 0% | pest or weed control at 62 g/ha ([4]; Lolium multiflorum, pre-emergence, 62 g ai/ha, preemergence, scale 0 (no effect) to 100 (complete control), read-out: Ryegrass, Italian plant response rating): 5% | pest or weed control at 125 g/ha ([4]; Lolium multiflorum, pre-emergence, 125 g ai/ha, preemergence, scale 0 (no effect) to 100 (complete control), read-out: Ryegrass, Italian plant response rating): 30% | pest or weed control at 31 g/ha ([4]; Lolium multiflorum, pre-emergence, Preemergence, 31 g ai/ha, scale 0 to 100, 0 no effect, 100 complete control, read-out: Plant response rating, Ryegrass, Italian): 0% | pest or weed control at 16 g/ha ([5]; Galium, pre-emergence, 16 g ai/ha, preemergence, scale 0 to 100 (0 no effect, 100 complete control), read-out: Galium plant response rating): 0% | pest or weed control at 62 g/ha ([5]; Galium, pre-emergence, 62 g ai/ha, preemergence, scale 0 (no effect) to 100 (complete control), read-out: Galium plant response rating): 90% | pest or weed control at 125 g/ha ([5]; Galium, pre-emergence, 125 g ai/ha, preemergence, scale 0 (no effect) to 100 (complete control), read-out: Galium plant response rating): 90% | pest or weed control at 31 g/ha ([5]; Galium, pre-emergence, Preemergence, 31 g ai/ha, scale 0 to 100, 0 no effect, 100 complete control, read-out: Plant response rating, Galium): 0% | pest or weed control at 16 g/ha ([6]; Digitaria sanguinalis, pre-emergence, 16 g ai/ha, preemergence, scale 0 to 100 (0 no effect, 100 complete control), read-out: Crabgrass, Large plant response rating): 65% | pest or weed control at 62 g/ha ([6]; Digitaria sanguinalis, pre-emergence, 62 g ai/ha, preemergence, scale 0 (no effect) to 100 (complete control), read-out: Crabgrass, Large plant response rating): 98% | pest or weed control at 125 g/ha ([6]; Digitaria sanguinalis, pre-emergence, 125 g ai/ha, preemergence, scale 0 (no effect) to 100 (complete control), read-out: Crabgrass, Large plant response rating): 100% | pest or weed control at 31 g/ha ([6]; Digitaria sanguinalis, pre-emergence, Preemergence, 31 g ai/ha, scale 0 to 100, 0 no effect, 100 complete control, read-out: Plant response rating, Crabgrass, Large): 85% | plant injury at 16 g/ha ([7]; Glycine max, pre-emergence, 16 g ai/ha, preemergence, scale 0 to 100 (0 no effect, 100 complete control), read-out: Soybean plant response rating): 0% | plant injury at 62 g/ha ([7]; Glycine max, pre-emergence, 62 g ai/ha, preemergence, scale 0 (no effect) to 100 (complete control), read-out: Soybean plant response rating): 5% | plant injury at 125 g/ha ([7]; Glycine max, pre-emergence, 125 g ai/ha, preemergence, scale 0 (no effect) to 100 (complete control), read-out: Soybean plant response rating): 55% | plant injury at 31 g/ha ([7]; Glycine max, pre-emergence, Preemergence, 31 g ai/ha, scale 0 to 100, 0 no effect, 100 complete control, read-out: Plant response rating, Soybean): 0% | pest or weed control at 16 g/ha ([8]; Echinochloa crus-galli, pre-emergence, 16 g ai/ha, preemergence, scale 0 to 100 (0 no effect, 100 complete control), read-out: Barnyardgrass plant response rating): 0% | pest or weed control at 62 g/ha ([8]; Echinochloa crus-galli, pre-emergence, 62 g ai/ha, preemergence, scale 0 (no effect) to 100 (complete control), read-out: Barnyardgrass plant response rating): 10% | pest or weed control at 125 g/ha ([8]; Echinochloa crus-galli, pre-emergence, 125 g ai/ha, preemergence, scale 0 (no effect) to 100 (complete control), read-out: Barnyardgrass plant response rating): 75% | pest or weed control at 31 g/ha ([8]; Echinochloa crus-galli, pre-emergence, Preemergence, 31 g ai/ha, scale 0 to 100, 0 no effect, 100 complete control, read-out: Plant response rating, Barnyardgrass): 0% | plant injury at 16 g/ha ([9]; Brassica napus, pre-emergence, 16 g ai/ha, preemergence, scale 0 to 100 (0 no effect, 100 complete control), read-out: Oilseed Rape plant response rating): 20% | plant injury at 62 g/ha ([9]; Brassica napus, pre-emergence, 62 g ai/ha, preemergence, scale 0 (no effect) to 100 (complete control), read-out: Oilseed Rape plant response rating): 100% | plant injury at 125 g/ha ([9]; Brassica napus, pre-emergence, 125 g ai/ha, preemergence, scale 0 (no effect) to 100 (complete control), read-out: Oilseed Rape plant response rating): 100% | plant injury at 31 g/ha ([9]; Brassica napus, pre-emergence, Preemergence, 31 g ai/ha, scale 0 to 100, 0 no effect, 100 complete control, read-out: Plant response rating, Oilseed Rape): 85% | pest or weed control at 16 g/ha ([10]; Avena fatua, post-emergence, 16 g ai/ha, postemergence, 0 is no effect, 100 is complete control, read-out: Plant response rating (0 to 100), Oat, Wild): 0% | pest or weed control at 125 g/ha ([10]; Avena fatua, post-emergence, 125 g ai/ha, postemergence, visual rating, scale 0 to 100 (0 no effect, 100 complete control), read-out: Plant response rating, Oat, Wild): 5% | pest or weed control at 62 g/ha ([10]; Avena fatua, post-emergence, Postemergence, 62 g ai/ha, scale 0 to 100 (0 no effect, 100 complete control), read-out: Plant response rating, Oat, Wild): 5% | pest or weed control at 16 g/ha ([11]; Stellaria media, post-emergence, 16 g ai/ha, postemergence, 0 is no effect, 100 is complete control, read-out: Plant response rating (0 to 100), Chickweed): 10% | pest or weed control at 125 g/ha ([11]; Stellaria media, post-emergence, 125 g ai/ha, postemergence, visual rating, scale 0 to 100 (0 no effect, 100 complete control), read-out: Plant response rating, Chickweed): 40% | pest or weed control at 62 g/ha ([11]; Stellaria media, post-emergence, Postemergence, 62 g ai/ha, scale 0 to 100 (0 no effect, 100 complete control), read-out: Plant response rating, Chickweed): 30%

CCCOc1cnn(-c2c(C#N)cccc2Oc2ncc(Cl)cn2)c1 [Compound 150]
Plant response rating, Barnyardgrass ([1]; 125 g ai/ha): 90 | Barnyardgrass plant response rating ([1]; 500 g ai/ha): 100 | Corn plant response rating ([2]; 125 g ai/ha): 50 | Plant response rating, Corn ([2]; 500 g ai/ha): 90 | Plant response rating, Barnyardgrass [3]: 0 | Ryegrass, Italian plant response rating [4, 12]: 0 | Ryegrass, Italian plant response rating [4, 13]: 30 | Ryegrass, Italian plant response rating [4, 14]: 50 | Galium plant response rating [5, 12]: 0 | Galium plant response rating [5, 13]: 90 | Galium plant response rating [5, 14]: 100 | Plant response rating, Galium [5, 15]: 80 | Crabgrass, Large plant response rating [6, 12]: 70 | Crabgrass, Large plant response rating [6, 13]: 100 | Crabgrass, Large plant response rating [6, 14]: 100 | Plant response rating, Crabgrass, Large [6, 15]: 98 | Soybean plant response rating [7, 12]: 0 | Soybean plant response rating [7, 13]: 45 | Soybean plant response rating [7, 14]: 90 | Barnyardgrass plant response rating [8, 12]: 5 | Barnyardgrass plant response rating [8, 13]: 65 | Barnyardgrass plant response rating [8, 14]: 80 | Plant response rating, Barnyardgrass [8, 15]: 20 | Oilseed Rape plant response rating [9, 12]: 0 | Oilseed Rape plant response rating [9, 13]: 90 | Oilseed Rape plant response rating [9, 14]: 100 | Plant response rating (0 to 100), Oat, Wild [10, 16]: 5 | Oat, Wild plant response rating [10, 19]: 5 | Plant response rating, Oat, Wild [10, 17]: 5 | Plant response rating, Oat, Wild [10, 18]: 5 | Plant response rating (0 to 100), Chickweed [11, 16]: 50 | Chickweed plant response rating [11, 19]: 65 | Plant response rating, Chickweed [11, 17]: 70 | Plant response rating, Chickweed [11, 18]: 65
